Assays:
[1] = target: T1, human NK1 receptor (Homo sapiens, UniProt P25103); assay: NK1 functional assay (B), FLIPR inhibition of intracellular calcium release induced by Substance P; type: cell-based; details: U2OS cells transduced with BacMam virus expressing human NK1; ligand Substance P; read-out: binding potency pKi in the NK1 functional assay (B) (converted)
T1 construct: expressed in transfected cells; host or cells: human U2OS cells transiently transduced with recombinant BacMam virus
Text: B) Measurement of NK Functional Potency:
Compounds of the invention were further characterised in a functional assay using FLIPR technology for the determination of their effect to inhibit the intracellular calcium release induced by interaction of NK receptors with its perspective ligands. Human U2OS cells transiently transduced with recombinant BacMam virus expressing human NK1, NK2 and NK3 receptors were used in the studies (see J. P. Condreay et al, Proc. Natl. Acad. Sci. USA 1999, 96(1): 127-132). Briefly, U20S cells were harvested from tissue culture flasks, re-suspended to a cell density of 200-300K/ml and mixed with recombinant BacMam virus carrying NKR gene in a virus/cell ratio of 1% (v/v). 10K-15K cells/well were then seeded in 384-well Greiner bio-one plate in culture medium (DMEM with 10% FBS), incubated overnight in 5% CO2 at 37° C. […] Finally, 10 uL/well of NKR ligands in assay buffer containing 0.1% BSA was added to the cells and fluorescence signal read on a FLIPR system. […] IC50 values of each compound were determined by an 11-point 3×-dilution inhibition curve. The potency each antagonist (fpKi) was calculated from plC50 by the Cheng-Prusoff equation using EC50 of ligand determined in a separate experiment.

[2] = target: T2, NK1 receptor (Meriones unguiculatus, UniProt Q5DUB1); assay: Gerbil foot tapping model (GR73632-induced, icv); type: in vivo
T2 construct: from tissue; host or cells: living gerbil, central nervous system (icv agonist challenge)
Text: The ability of the compounds of the invention to penetrate the central nervous system and to bind at the NK1 receptor may be determined using the gerbil foot tapping model as described by Rupniak & Williams, Eur. Jour. of Pharmacol., 1994.
Intracerebroventricular (icv) administration of the NK1 receptor agonist GR73632 (R. M. Hagan et al., Neuropeptides 1991, 19 (2), 127-135) a characteristic hind leg foot tapping (GFT) response in gerbils which can be inhibited by potent NK1 receptor antagonists. The gerbil foot tapping paradigm was carried out as follows; gerbils were dosed with compound of the invention, and following an appropriate pre-treatment time were anaesthetised using isofluorane/oxygen mixture. The skull was then exposed and 5 ul of GR73632 (3 pmol conc.) was injected by insertion of a cuffed 25G needle to a depth of 4 mm below bregma, directly into the lateral ventricle (intracerebroventricular dosing). Immediately following the injection, gerbils were placed individually into a clear observation box to recover.
Upon the gerbil regaining its righting reflex, the duration of repetitive hind foot tapping was recorded over a 5 minute period. The dose of the test compound required to inhibit by 50% the tapping induced by the NK1 agonist expressed as mg/kg is referred to as the ID50 values.

T2 sequence (Q5DUB1 whole entry): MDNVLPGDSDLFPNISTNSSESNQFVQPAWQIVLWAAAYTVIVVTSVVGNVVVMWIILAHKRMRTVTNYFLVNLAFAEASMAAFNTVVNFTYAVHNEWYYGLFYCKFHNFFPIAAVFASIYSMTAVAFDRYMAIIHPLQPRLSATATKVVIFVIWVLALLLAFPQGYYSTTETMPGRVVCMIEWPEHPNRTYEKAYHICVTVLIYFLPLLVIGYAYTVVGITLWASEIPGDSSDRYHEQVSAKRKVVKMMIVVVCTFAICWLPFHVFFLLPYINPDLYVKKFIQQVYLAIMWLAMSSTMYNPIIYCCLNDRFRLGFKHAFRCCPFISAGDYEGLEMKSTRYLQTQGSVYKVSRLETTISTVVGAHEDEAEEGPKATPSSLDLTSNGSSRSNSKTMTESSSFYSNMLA
T1 sequence (P25103 whole entry): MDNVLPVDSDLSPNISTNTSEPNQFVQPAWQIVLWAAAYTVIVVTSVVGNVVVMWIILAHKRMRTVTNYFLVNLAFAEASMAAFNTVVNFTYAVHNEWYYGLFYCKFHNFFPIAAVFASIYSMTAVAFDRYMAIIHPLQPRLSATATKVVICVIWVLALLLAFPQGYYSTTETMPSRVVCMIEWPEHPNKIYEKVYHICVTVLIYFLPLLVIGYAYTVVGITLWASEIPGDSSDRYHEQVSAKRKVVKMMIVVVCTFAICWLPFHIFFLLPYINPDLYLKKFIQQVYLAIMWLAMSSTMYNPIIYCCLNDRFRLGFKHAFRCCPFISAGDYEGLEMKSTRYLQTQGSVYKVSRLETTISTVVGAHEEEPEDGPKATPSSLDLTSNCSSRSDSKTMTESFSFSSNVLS

Ki [1] | SMILES | GR73632-induced Foot Tapping behaviour ([2]; dose range of 0.1 to 10 mg/kg p.o.) | ED50 ([2]; po, read-out: ID50, dose required to inhibit by 50% the tapping induced by the NK1 agonist)
< 1 nM | Cc1cc(F)ccc1[C@H]1C[C@@]2(CCC(C(N)=O)N2)CCN1C(=O)N(C)[C@H](C)c1cc(C(F)(F)F)cc(C(F)(F)F)c1 (single isomer, unassigned; diastereoisomer 1) [Example 1] |  | 
 | Cc1cc(F)ccc1[C@H]1C[C@]2(CC[C@H](C(N)=O)N2)CCN1C(=O)N(C)[C@H](C)c1cc(C(F)(F)F)cc(C(F)(F)F)c1.Cl [Example 4, (2R,5S,7R)—N^8-{(1R)-1-[3,5-bis(trifluoromethyl)phenyl]ethyl}-7-(4-fluoro-2-methylphenyl)-N^8-methyl-1,8-diazaspiro[4.5]decane-2,8-dicarboxamide hydrochloride] | significantly attenuated | ~0.67 mg/kg
